According to ChEMBL document CHEMBL5210121, “Affinity On-target Cellular Literature for EUbOPEN Chemogenomics Library wave 3” (2023):

Key:
[1] = molecular target: Mas-related G-protein coupled receptor member X2 (Homo sapiens, UniProt Q96LB1); experiment: Affinity On-target Cellular interaction (PRESTO-Tango concentration response assay (by the NIMH-PDSP)) EUB0000345a MRGPRX2; parameters: mode of action Negative control for (R)-ZINC 3573, recommended concentration 1 uM
D(4) dopamine receptor = D(4) dopamine receptor (Homo sapiens, UniProt P21917); experiment: Affinity On-target Cellular interaction (Fluorometric Imaging Plate Reader (FLIPR) Assay (agonist activity at human D4.4 receptor in HEK293 cells coexpressing G-alpha-qo5)) EUB0000332a DRD4; format: cell-based; parameters: mode of action Negative control for ABT-724, recommended concentration 100 nM
[2] = molecular target: Cystic fibrosis transmembrane conductance regulator (Homo sapiens, UniProt P13569, F508DEL); experiment: Affinity On-target Cellular interaction (CFTR Restoration Trans-Epithelial Current Clamp (TECC) assay (in HBE cells from F508del CF patients)) EUB0000264b CFTR; format: cell-based; parameters: mode of action Negative control for A-1596586, recommended concentration 1 uM
[3] = molecular target: Endothelin receptor type B (Homo sapiens, UniProt P24530); experiment: Affinity On-target Cellular interaction (Cellular functional assay (antagonist effect, Eurofins)) EUB0000339a EDNRB; parameters: mode of action Negative control for A-192621, recommended concentration 100 nM
TGF-beta receptor type-1 = TGF-beta receptor type-1 (Homo sapiens, UniProt P36897); experiment: Affinity On-target Cellular interaction (NanoBRET assay (HEK293T cells)) EUB0000710a TGFBR1
Activin receptor type-1B = Activin receptor type-1B (Homo sapiens, UniProt P36896); experiment: Affinity On-target Cellular interaction (NanoBRET assay (HEK293T cells)) EUB0000710a ACVR1B
[4] = molecular target: Serine/threonine-protein kinase TBK1 (Homo sapiens, UniProt Q9UHD2)
[5] = molecular target: Inhibitor of nuclear factor kappa-B kinase subunit epsilon (Homo sapiens, UniProt Q14164)
[6] = molecular target: Proteinase-activated receptor 1 (Homo sapiens, UniProt P25116); experiment: Affinity On-target Cellular interaction (Functional cellular assay in HEK cells expressing F2R) EUB0000333a F2R; format: cell-based; parameters: mode of action Negative control for BAY-386, recommended concentration 100 nM
[7] = molecular target: Lutropin-choriogonadotropic hormone receptor (Homo sapiens, UniProt P22888); experiment: Affinity On-target Cellular interaction (Cell-based assay (LH Antagonism)) EUB0000340a LHCGR; parameters: mode of action Negative control for BAY-899, recommended concentration 1 uM
[8] = molecular target: Bifunctional epoxide hydrolase 2 (Homo sapiens, UniProt P34913); experiment: Affinity On-target Cellular interaction (ELISA (inhibition of sEH in human Hep G2 cells)) EUB0000542a EPHX2; format: cell-based; parameters: mode of action Inhibitor, recommended concentration 100 nM
[9] = molecular target: T1, Mitogen-activated protein kinase 1 (Homo sapiens, UniProt P28482); experiment: Affinity On-target Cellular interaction (Cellular assay (inhibition of RSK phosphorylation, A375SM cells)) EUB0000700a MAPK1
[10] = molecular target: T1, Mitogen-activated protein kinase 1
[11] = molecular target: Serine/threonine-protein kinase PLK1 (Homo sapiens, UniProt P53350); experiment: Affinity On-target Cellular interaction (ELISA (PLK1 phosphorylation of Ser15-p53 in HeLa cells)) EUB0000698a PLK1; format: cell-based; parameters: mode of action Inhibitor, recommended concentration 100 nM
[12] = molecular target: Leucine-rich repeat serine/threonine-protein kinase 2 (Homo sapiens, UniProt Q5S007); experiment: Affinity On-target Cellular interaction (NanoBRET assay (HEK293T cells)) EUB0000706a LRRK2
[13] = Affinity On-target Cellular interaction (Cellular human mast cell degranulation assay) EUB0000714a SYK
[14] = molecular target: T2, Dual specificity protein kinase CLK4 (Homo sapiens, UniProt Q9HAZ1); experiment: Affinity On-target Cellular interaction (NanoBRET assay (HEK293T cells)) EUB0000705a CLK4
[15] = molecular target: T3, Dual specificity protein kinase CLK1 (Homo sapiens, UniProt P49759); experiment: Affinity On-target Cellular interaction (NanoBRET assay (HEK293T cells)) EUB0000705a CLK1
[16] = molecular target: Dual specificity protein kinase CLK2 (Homo sapiens, UniProt P49760); experiment: Affinity On-target Cellular interaction (NanoBRET assay (HEK293T cells)) EUB0000705a CLK2
[17] = molecular target: T3, Dual specificity protein kinase CLK1; experiment: Affinity On-target Cellular interaction (NanoBRET assay (HEK293T cells)) EUB0000321b CLK1; parameters: mode of action Inhibitor, recommended concentration 100 nM
[18] = molecular target: T2, Dual specificity protein kinase CLK4; experiment: Affinity On-target Cellular interaction (NanoBRET assay (HEK293T cells)) EUB0000321b CLK4; parameters: mode of action Inhibitor, recommended concentration 100 nM
[19] = molecular target: G-protein coupled receptor 52 (Homo sapiens, UniProt Q9Y2T5)
Sequence of G-protein coupled receptor 52 (Q9Y2T5 whole entry): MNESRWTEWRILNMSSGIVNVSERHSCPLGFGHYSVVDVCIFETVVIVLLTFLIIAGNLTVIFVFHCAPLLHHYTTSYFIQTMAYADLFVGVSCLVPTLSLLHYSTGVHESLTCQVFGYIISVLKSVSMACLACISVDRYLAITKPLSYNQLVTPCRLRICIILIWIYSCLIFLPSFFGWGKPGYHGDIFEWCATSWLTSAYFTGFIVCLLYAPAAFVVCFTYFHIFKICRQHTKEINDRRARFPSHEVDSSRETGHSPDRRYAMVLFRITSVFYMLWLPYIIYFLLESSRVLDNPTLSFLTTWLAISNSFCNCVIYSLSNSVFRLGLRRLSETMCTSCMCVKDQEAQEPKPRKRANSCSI

T2 sequence (Q9HAZ1 whole entry): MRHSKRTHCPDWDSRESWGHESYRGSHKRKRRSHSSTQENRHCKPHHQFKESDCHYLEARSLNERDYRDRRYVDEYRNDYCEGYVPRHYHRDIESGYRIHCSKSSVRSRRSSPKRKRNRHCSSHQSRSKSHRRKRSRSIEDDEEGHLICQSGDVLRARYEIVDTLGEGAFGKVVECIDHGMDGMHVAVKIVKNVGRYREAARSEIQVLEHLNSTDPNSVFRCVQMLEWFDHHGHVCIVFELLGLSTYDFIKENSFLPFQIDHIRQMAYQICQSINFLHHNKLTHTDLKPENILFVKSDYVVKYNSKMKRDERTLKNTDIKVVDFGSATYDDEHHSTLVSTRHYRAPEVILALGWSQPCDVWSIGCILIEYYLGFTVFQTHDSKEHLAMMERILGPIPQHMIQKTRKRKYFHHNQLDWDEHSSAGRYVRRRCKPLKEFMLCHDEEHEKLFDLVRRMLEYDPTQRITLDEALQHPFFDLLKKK
T3 sequence (P49759 whole entry): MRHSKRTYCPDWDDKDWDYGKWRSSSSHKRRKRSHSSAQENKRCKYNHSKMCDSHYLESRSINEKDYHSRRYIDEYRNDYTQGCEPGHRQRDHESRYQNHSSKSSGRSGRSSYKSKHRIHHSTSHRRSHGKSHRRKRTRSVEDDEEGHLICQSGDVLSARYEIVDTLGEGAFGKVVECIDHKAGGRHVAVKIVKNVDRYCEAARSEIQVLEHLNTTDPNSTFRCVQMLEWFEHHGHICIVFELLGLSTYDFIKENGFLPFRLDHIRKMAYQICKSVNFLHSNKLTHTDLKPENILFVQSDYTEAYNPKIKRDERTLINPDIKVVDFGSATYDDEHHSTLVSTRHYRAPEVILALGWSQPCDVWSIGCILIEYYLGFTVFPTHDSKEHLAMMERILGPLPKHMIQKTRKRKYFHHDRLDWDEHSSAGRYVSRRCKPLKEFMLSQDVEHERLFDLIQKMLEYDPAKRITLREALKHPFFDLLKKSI
T1 sequence (P28482 whole entry): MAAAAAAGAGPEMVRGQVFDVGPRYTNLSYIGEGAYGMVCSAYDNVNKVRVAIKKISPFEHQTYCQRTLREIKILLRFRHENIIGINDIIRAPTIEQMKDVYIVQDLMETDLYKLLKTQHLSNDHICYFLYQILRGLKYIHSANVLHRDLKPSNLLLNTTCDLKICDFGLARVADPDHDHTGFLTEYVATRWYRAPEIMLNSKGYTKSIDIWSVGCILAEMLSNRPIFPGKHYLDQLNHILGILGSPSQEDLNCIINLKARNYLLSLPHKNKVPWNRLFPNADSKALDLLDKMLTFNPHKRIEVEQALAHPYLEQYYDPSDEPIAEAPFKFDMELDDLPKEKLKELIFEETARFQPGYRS
Sequence of TGF-beta receptor type-1 (P36897 whole entry): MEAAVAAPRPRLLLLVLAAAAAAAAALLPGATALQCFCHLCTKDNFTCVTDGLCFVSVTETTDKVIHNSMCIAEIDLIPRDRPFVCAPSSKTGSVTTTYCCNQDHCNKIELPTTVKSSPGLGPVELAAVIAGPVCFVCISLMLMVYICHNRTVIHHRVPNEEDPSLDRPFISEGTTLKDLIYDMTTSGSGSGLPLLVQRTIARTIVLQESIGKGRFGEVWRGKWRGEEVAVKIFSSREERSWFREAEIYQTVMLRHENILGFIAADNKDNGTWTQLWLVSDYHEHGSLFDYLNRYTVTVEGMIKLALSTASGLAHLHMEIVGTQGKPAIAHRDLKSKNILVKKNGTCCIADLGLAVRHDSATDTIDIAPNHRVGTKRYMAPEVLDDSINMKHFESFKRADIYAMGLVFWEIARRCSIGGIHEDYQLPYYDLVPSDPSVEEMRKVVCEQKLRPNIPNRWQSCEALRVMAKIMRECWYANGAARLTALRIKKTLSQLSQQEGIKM
Sequence of Lutropin-choriogonadotropic hormone receptor (P22888 whole entry): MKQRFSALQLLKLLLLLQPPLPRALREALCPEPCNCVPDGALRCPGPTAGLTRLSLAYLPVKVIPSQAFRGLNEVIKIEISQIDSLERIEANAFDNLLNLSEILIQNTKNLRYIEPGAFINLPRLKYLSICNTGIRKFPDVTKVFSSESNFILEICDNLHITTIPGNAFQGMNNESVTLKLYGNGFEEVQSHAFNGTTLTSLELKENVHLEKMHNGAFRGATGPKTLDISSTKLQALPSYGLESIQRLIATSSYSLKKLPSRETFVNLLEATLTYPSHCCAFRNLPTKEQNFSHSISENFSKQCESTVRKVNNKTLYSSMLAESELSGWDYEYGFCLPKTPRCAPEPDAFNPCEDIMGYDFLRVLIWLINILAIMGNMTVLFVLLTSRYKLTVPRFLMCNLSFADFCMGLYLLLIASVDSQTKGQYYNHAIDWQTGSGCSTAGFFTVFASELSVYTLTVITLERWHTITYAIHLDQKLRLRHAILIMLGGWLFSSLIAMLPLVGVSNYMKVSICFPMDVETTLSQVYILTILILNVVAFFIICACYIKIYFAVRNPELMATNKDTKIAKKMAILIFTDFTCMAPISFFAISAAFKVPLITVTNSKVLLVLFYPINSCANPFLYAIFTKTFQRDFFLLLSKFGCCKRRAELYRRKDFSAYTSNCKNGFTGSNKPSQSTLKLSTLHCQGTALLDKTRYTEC
Sequence of Proteinase-activated receptor 1 (P25116 whole entry): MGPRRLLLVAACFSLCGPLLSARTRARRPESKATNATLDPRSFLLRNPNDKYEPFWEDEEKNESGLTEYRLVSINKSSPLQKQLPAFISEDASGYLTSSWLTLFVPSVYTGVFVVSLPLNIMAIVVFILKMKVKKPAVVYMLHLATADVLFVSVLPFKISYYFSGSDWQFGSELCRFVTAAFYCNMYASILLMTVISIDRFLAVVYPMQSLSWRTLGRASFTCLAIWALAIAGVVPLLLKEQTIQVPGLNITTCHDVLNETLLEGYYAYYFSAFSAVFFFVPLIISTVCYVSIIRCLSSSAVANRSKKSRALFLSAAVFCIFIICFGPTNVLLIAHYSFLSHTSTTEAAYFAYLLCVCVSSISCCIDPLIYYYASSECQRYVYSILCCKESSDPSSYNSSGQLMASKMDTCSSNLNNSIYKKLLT
Sequence of Mas-related G-protein coupled receptor member X2 (Q96LB1 whole entry): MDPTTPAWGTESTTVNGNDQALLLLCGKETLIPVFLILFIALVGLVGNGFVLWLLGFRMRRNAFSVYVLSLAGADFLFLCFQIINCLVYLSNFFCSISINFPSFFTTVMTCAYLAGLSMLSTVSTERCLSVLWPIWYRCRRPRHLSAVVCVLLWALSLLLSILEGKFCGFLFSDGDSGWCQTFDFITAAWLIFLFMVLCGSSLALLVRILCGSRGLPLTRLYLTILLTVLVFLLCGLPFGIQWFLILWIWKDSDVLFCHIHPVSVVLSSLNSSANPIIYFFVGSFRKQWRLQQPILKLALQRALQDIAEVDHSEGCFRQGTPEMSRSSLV
Sequence of D(4) dopamine receptor (P21917 whole entry): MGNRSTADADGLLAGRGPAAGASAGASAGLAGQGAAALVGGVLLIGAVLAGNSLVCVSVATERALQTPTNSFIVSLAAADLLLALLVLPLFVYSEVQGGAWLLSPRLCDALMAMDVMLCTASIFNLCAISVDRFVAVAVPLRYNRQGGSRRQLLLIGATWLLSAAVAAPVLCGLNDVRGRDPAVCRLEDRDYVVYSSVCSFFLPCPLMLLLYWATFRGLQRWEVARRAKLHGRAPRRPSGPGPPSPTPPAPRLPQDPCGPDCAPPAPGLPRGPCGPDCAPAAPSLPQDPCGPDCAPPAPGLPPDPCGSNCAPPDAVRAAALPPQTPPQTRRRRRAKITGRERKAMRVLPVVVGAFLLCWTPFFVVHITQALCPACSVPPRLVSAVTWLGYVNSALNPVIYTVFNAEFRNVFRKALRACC
Sequence of Serine/threonine-protein kinase TBK1 (Q9UHD2 whole entry): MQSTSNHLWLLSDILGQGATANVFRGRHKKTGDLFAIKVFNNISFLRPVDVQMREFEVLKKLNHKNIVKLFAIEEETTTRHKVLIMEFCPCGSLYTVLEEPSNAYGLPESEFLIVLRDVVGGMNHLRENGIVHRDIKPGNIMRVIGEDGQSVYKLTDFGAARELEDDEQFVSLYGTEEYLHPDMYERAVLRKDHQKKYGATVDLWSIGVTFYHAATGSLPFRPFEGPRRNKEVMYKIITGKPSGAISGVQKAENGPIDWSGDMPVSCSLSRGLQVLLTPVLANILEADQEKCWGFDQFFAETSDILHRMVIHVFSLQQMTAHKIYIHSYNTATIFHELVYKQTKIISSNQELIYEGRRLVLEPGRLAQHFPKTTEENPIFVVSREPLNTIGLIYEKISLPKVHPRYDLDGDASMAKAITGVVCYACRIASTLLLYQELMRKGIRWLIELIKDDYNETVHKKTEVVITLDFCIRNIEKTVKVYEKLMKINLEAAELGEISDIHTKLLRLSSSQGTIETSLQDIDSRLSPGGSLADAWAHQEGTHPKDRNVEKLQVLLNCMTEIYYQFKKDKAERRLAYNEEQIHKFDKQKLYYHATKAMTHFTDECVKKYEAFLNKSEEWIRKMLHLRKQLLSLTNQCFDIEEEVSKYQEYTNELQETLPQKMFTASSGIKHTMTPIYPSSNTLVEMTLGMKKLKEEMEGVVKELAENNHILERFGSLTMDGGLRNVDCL

Structure (SMILES): CN(C)[C@H]1CCN(c2cc(-c3ccccc3)nc3ccnn23)C1 [(S)-ZINC-3573]
- EC50 [1]: > 100 µM

Structure (SMILES): CSc1cccnc1N1CCN(Cc2nc3ccccc3[nH]2)CC1 [A-769]
- EC50 (D(4) dopamine receptor): > 10 µM

Structure (SMILES): COc1ccc2c(c1)O[C@H](c1ccc(OC)c(OC)c1)C[C@@H]2NC(=O)C1(c2ccc3c(c2)OC(F)(F)O3)CC1 [A-1596584]
- EC50 [2]: > 3 µM

Structure (SMILES): CCCOc1ccc([C@@H]2[C@@H](C(=O)O)[C@H](c3ccc4c(c3)OCO4)CN2CC(=O)Nc2c(CC)cccc2CC)cc1 [A-1806262]
- IC50 [3]: > 10 µM

Structure (SMILES): Cc1cnc(-c2cc(Cl)ccc2F)cc1-n1c(=O)n(CC(N)=O)c2ccccc21 [Al11]
- IC50 (TGF-beta receptor type-1): > 10 µM
- IC50 (Activin receptor type-1B): > 10 µM

Structure (SMILES): CN(C)c1ncnc(-c2ccc3nc(Nc4cc(CN5CCN(C(=O)CC(F)(F)F)CC5)ccn4)[nH]c3c2)c1Cl [BAY-440]
- IC50 [4]: > 27 µM
- IC50 [5]: > 27 µM

Structure (SMILES): Cc1noc([C@H]2C[C@@H](c3ccc(C(F)(F)F)cc3)CN(C(=O)N3CCS(=O)(=O)C3)C2)n1 [BAY-448]
- IC50 [6]: > 10 µM

Structure (SMILES): O=C(Nc1ccc(Oc2ccc(F)cc2)cc1)N1CCc2ncccc2[C@H]1c1ccc(F)cc1 [BAY-897]
- IC50 [7]: > 16 µM

Structure (SMILES): CCOCCn1cc(C(=O)Nc2ccc(-n3nc(-c4cccnc4)cc3C(F)(F)F)cn2)ccc1=O [BI 1935]
- IC50 [8]: < 0.001 µM

Structure (SMILES): C[C@H](NC(=O)Nc1cc2[nH]ncc2c(CO)n1)c1ccccn1 [ERKi-NC]
- IC50 [9]: > 10 µM

Structure (SMILES): C[C@@H](NC(=O)Nc1cc2[nH]ncc2c(CO)n1)c1ccccc1 [ERKi]
- IC50 [10]: 0.85 µM

Structure (SMILES): COc1cc2ncn(-c3cc(OCc4ccccc4C(F)(F)F)c(C(N)=O)s3)c2cc1OC [GW843682X]
- IC50 [11]: 0.14 µM

Structure (SMILES): C[C@@H]1CN(c2cc(-c3nn(C)c4ccc(OC5(C)CC5)cc34)ncn2)C[C@H](C)O1 [MLi-2-NC]
- EC50 [12]: 0.421 µM

Structure (SMILES): Cc1cc(Nc2nccc(C)n2)cc(-c2cnc([C@@]3(O)CC[C@H](C(=O)O)C(C)(C)C3)s2)c1 [MRL-SYKi]
- IC50 [13]: 0.038 µM

Structure (SMILES): CN1CCN(C(=O)C(C)(C)c2ccc(C(=O)Nc3cn4cc(-c5cc(C(C)(C)C)cc(C(C)(C)C)c5)ccc4n3)cc2)CC1 [T3-CLK-N]
- IC50 [14]: > 10 µM
- IC50 [15]: > 10 µM
- IC50 [16]: > 10 µM

Structure (SMILES): CN1CCN(C(=O)C(C)(C)c2ccc(C(=O)Nc3cn4cc(-c5ccncc5)ccc4n3)cc2)CC1 [T3-CLK]
- IC50 [17]: 0.004 µM
- IC50 [18]: > 0.002 µM

Structure (SMILES): Cc1nc(Cc2cccc(C(F)(F)F)c2)sc1-c1ccc(C(N)=O)nc1 [TP-024n]
- EC50 [19]: > 1 µM
